Series [1] has as its target T1, apoaequorin (Aequorea victoria, UniProt P07164).
T1 construct: purchased Chisso Corporation
The experiment in a line: Luminescence spectra of semi-synthetic aequorins. Particulars: semi-synthetic aequorin, calcium added, 22 to 25° C. In kind it is biochemical. Here is the method: In a quartz cell with light path length of 10 mm, 1 ml of 50 mM Tris-HCl (pH 7.6) containing 1 mM EDTA and 100 μl (100 μg protein) of a solution of the regenerated semi-synthetic aequorin were charged. Next, 100 μl of 50 mM Tris-HCl (pH 7.6) containing 0.1 ml of 10 mM calcium chloride solution was added thereto to start the luminescence reaction. The spectra were measured on a spectrofluorimeter (FP-6500, manufactured by Jasco Co., Ltd.) with the excitation light source turned off. The measurement conditions were bandwidth: 20 nm, response: 0.5 second, scan speed: 2000 nm/min and 22 to 25° C. The luminescence spectra measured were corrected.

The next series relates to Gaussia luciferase. The experiment in a line: Substrate specificity and luminescence activity of Gaussia luciferase. Particulars: measured for 10 seconds, coelenterazine = 100. Format: biochemical. As to the method: Gaussia luciferase was purified by the method described in Japanese Patent Application KOKAI No. 2008-099669 and provided for use. After 1 μl of Gaussia luciferase (0.024 mg/ml) was dissolved in 100 μl of phosphate buffered saline (manufactured by Sigma Inc.) containing 0.01% Tween 20 (manufactured by Sigma Inc.) and 10 mM EDTA, 1 μl of a solution of coelenterazine or its analogue (1 μg/μl) in ethanol was mixed with the solution to start the luminescence reaction. The luminescence activity was measured for 10 seconds on a luminometer luminescencer-PSN AB2200 (manufactured by Atto Co., Ltd.). The luminescence activity was determined by repeating the measurement described above 3 times and expressed in terms of the maximum luminescence intensity (Imax) of luminescence activity.

For series [2], the target named is T1, apoaequorin. As to the kind of experiment: Luminescence patterns of semi-synthetic aequorins, half decay time. Format: biochemical. Particulars: semi-synthetic aequorin; time in which luminescence becomes half of maximum; patterns measured for 60 seconds. As to the method: A solution of the regenerated semi-synthetic aequorin was diluted to 10-fold with 20 mM Tris-HCl (pH 7.6) containing 0.1% BSA (manufactured by Sigma, Inc.), 0.01 mM EDTA and 150 mM NaCl. The dilution was dispensed into a 96-well microplate (Nunc #236108) at 5 μl/well. The luminescence reaction was triggered by injecting 50 mM Tris-HCl (pH 7.6) containing 50 mM calcium chloride solution at 100 μl/well. The luminescence patterns for 60 seconds were measured to determine half decay time of the luminescence (a time period in which the luminescence becomes half of the maximum luminescence intensity).

The target in the next series is T2, Renilla luciferase (Renilla reniformis, UniProt P27652).
T2 construct: made in house
T2 sequence (P27652 1-311): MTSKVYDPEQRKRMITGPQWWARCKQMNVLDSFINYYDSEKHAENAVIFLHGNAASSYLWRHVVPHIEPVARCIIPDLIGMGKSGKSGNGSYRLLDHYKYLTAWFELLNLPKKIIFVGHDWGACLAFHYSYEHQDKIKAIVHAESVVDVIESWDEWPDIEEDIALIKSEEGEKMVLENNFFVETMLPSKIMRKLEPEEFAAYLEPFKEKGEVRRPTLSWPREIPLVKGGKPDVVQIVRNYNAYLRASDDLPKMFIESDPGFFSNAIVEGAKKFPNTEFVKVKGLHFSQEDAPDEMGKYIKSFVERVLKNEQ
As to the kind of experiment: Substrate specificity and luminescence activity of Renilla luciferase. In kind it is biochemical. Particulars: measured for 10 seconds, coelenterazine = 100. As to the method:
Renilla luciferase was purified by the method described in Inouye, S. & Shimomura, O. Biochem. Biophys. Res. Commun. (1997) 233: 349-353, and used for assay.
(§1) After 1 μl of Renilla luciferase (0.45 mg/ml) was dissolved in 100 μl of 30 mM Tris-HCl (pH 7.6) containing 10 mM EDTA, 1 μl of a solution of coelenterazine or its analogue (1 μg/μl) in ethanol was added to the solution to start the luminescence reaction. The luminescence activity was measured for 10 seconds on a luminometer luminescencer-PSN AB2200 (manufactured by Atto Co., Ltd.). The luminescence activity was determined by repeating the measurement of luminescence activity described above 3 times and expressed in terms of the maximum luminescence intensity (Imax) of luminescence activity.

Series [3] concerns the target T1, apoaequorin. As to the kind of experiment: Fluorescence spectra of fluorescent proteins formed from semi-synthetic aequorins by Ca2+. Format: physicochemical. Particulars: fluorescent protein generated by calcium from semi-synthetic aequorin; excitation 330 nm, 25° C. As to the method: The fluorescence spectra of novel fluorescent proteins formed by the Ca^2+-triggerd reaction from semi-synthetic aequorins in EXAMPLE 3 were measured at 25° C. in a quartz cell (10 mm light path length) using a Jasco FP-6500 spectrofluorometer (excitation wavelength: 330 nm, emission/excitation bandwidth: 3 nm; response: 0.5 sec, scan speed, 1000 nm/min). The fluorescence spectra measured were corrected.

Series [4] has as its target T3, 19 kDa protein from Oplophorus luciferase (Oplophorus gracilirostris, UniProt Q9GV45).
T3 construct: made in house
The experiment in a line: Substrate specificity and luminescence activity of the 19 kDa protein from Oplophorus luciferase. In kind it is biochemical. Particulars: measured for 60 seconds, coelenterazine = 100. Here is the method:
The 19 kDa protein from Oplophorus luciferase was purified by the method described in Inouye, S. and Sasaki, S., Protein Express. Purif. (2007) 56: 261-268 and provided for use.
as §1, with “of the 19 kDa protein (2.3 mg/ml) from Oplophorus” for “of Renilla”, “luciferase containing 1 mM DTT” for “luciferase (0.45 mg/ml)”, “luminescence reaction, and the” for “luminescence reaction. The”, “for 60” for “for 10”, “measurement” for “measurement of luminescence activity”

Series [5] in a line: Fluorescence spectra of coelenteramide analogue alone (absence of apoaequorin). Particulars: analogue alone 8 μg/ml; for Coelenteramide (Buffer containing CaCl2) Fluorescence intensity (rlu) / Coelenteramide (Buffer containing CaCl2) Maximum fluorescence wavelength λmax (nm): 10 mM CaCl2 buffer pH 7.6, excitation 337 nm; for Coelenteramide (EDTA-containing buffer) Fluorescence intensity (rlu) / Coelenteramide (EDTA-containing buffer) Maximum fluorescence wavelength λmax (nm): 10 mM EDTA buffer pH 7.6, excitation 337 nm. In kind it is physicochemical. As to the method:
(§2) The fluorescence spectra were determined as follows. For coelenteramide analogue alone, the fluorescence was measured according to the procedures for semi-synthetic gFP and semi-synthetic BFP described in EXAMPLES 11 and 12, except for in the absence of apoaequorin, using 1 ml of 50 mM Tris-HCl (pH 7.6) containing 10 mM EDTA and 1 mM DTT or 1 ml of 50 mM Tris-HCl (pH 7.6) containing 10 mM CaCl2 and 1 mM DTT, in the final concentration of coelenteramide analogue adjusted to 8 μg/ml. The fluorescence spectra were measured at 25° C. in a quartz cell (10 mm light path length) using a Jasco FP-6500 spectrofluorometer (excitation wavelength: 337 nm, emission/excitation bandwidth: 3 nm; response: 0.5 sec, scan speed, 1000 nm/min).

In series [6] the target is T1, apoaequorin. The experiment in a line: Fluorescence spectra of semi-synthetic BFP (coelenteramide analogue + apoaequorin, CaCl2). Format: physicochemical. Particulars: 10 mM CaCl2 buffer, excitation 337 nm. Here is the method: Semi-synthetic gFP was prepared from recombinant apoaequorin and coelenteramide analogues as follows. In 1 ml of 50 mM Tris-HC 1 (pH 7.6) containing 10 mM CaCl2 and 1 mM DTT, apoaequorin (0.2 mg) was mixed with 8 μl of a coelenteramide analogue (1 μg/μl in anhydrous methanol). The mixture was allowed to stand at 4° C. for 16 hours to prepare semi-synthetic BFP-like protein (hereinafter sometimes simply referred to as “semi-synthetic BFP”).
as §2

Series [7] has as its target T1, apoaequorin. The experiment in a line: Fluorescence spectra of semi-synthetic gFP (coelenteramide analogue + apoaequorin, EDTA). Particulars: 10 mM EDTA buffer, excitation 337 nm. In kind it is physicochemical. Here is the method:
Semi-synthetic gFP was prepared from recombinant apoaequorin and coelenteramide analogues as follows. In 1 ml of 50 mM Tris-HC 1 (pH 7.6) containing 10 mM EDTA and 1 mM DTT, apoaequorin (0.2 mg) was mixed with 8 μl of a coelenteramide analogue (1 μg/μl in anhydrous methanol). The mixture was allowed to stand 4° C. for 16 hours to prepare semi-synthetic gFP-like protein (hereinafter sometimes simply referred to as “semi-synthetic gFP”).
as §2

Structures are written as SMILES.

T1 sequence (P07164 other isoform, or with tags, fused parts or gaps with the stated changes): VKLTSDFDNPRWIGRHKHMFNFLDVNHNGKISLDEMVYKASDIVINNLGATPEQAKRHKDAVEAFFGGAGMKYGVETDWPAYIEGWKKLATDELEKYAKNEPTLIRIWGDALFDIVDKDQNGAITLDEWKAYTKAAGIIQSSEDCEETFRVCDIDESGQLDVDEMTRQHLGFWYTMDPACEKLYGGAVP
T3 sequence (Q9GV45 28-196): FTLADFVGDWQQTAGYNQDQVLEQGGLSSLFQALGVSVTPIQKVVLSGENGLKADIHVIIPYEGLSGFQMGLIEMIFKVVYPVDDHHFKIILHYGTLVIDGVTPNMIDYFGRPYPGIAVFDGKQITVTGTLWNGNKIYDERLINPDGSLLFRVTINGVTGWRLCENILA

For the compound `Oc1ccc(Cc2nc3c(Cc4ccccc4)nc(-c4ccc(O)cc4)cn3c2O)cc1` [Coelenterazine], on apoaequorin [1], the “Maximum luminescence wavelength λmax (nm)” value is 472.5 nm. Besides, the “Luminescence activity Imax (%)” value (with Gaussia luciferase; at Renilla luciferase; in series [4]) was 100.0% throughout. For the same compound, the “Half decay time” value at apoaequorin [2] was 0.81 s. For the same compound, at apoaequorin [3], the “Maximum fluorescence wavelength λmax (nm)” value was 473.0 nm. In addition, the “Relative fluorescence intensity (rlu)” value on apoaequorin [3] was found to be 63.3 rlu.

In the case of `O=c1c(Cc2ccc(O)cc2)nc2c(-c3ccsc3)[nH]c(-c3ccc(O)cc3)cn1-2` [Compound 3g, 2-(4-Hydroxybenzyl)-6-(4-hydroxyphenyl)-8-(thiophen-3-yl)imidazo[1,2-a]pyrazin-3(7H)-one], the figures for the “Luminescence activity Imax (%)” value (in the series with Gaussia luciferase; at Renilla luciferase; in series [4]) were 0.00%, 0.00% and 0.3%, respectively.

For the compound `O=c1c(Cc2ccc(O)cc2)nc2c(-c3csc4ccccc34)[nH]c(-c3ccc(O)cc3)cn1-2` [Compound 3i, 8-(Benzo[b]thiophen-3-yl)-2-(4-hydroxybenzyl)-6-(4-hydroxyphenyl)imidazo[1,2-a]pyrazin-3(7H)-one], the “Luminescence activity Imax (%)” value with Gaussia luciferase was found to be 0.00%; at Renilla luciferase it was 0.00%; in series [4], 0.09%.

As to `Oc1ccc(NC(=S)Nc2ncc(-c3ccc(O)cc3)nc2Cc2ccccc2)cc1` [Compound 4v, 1-[3-Benzyl-5-(4-hydroxyphenyl)pyrazin-2-yl]-3-(4-hydroxyphenyl)thiourea], in series [5], the “Coelenteramide (Buffer containing CaCl2) Fluorescence intensity (rlu)” value is 1.4 rlu, the “Coelenteramide (Buffer containing CaCl2) Maximum fluorescence wavelength λmax (nm)” value turned out to be 466.0 nm, the “Coelenteramide (EDTA-containing buffer) Fluorescence intensity (rlu)” value stood at 1.4 rlu and the “Coelenteramide (EDTA-containing buffer) Maximum fluorescence wavelength λmax (nm)” value was 484.0 nm. For the same compound, on apoaequorin [6], the Fluorescence intensity worked out at 3.3 rlu and the “Semi-synthetic BFP (Buffer containing CaCl2) Maximum fluorescence wavelength λmax (nm)” value (shortened to “Semi-synthetic BFP”) was 430.5 nm. For the same compound, on apoaequorin [7], the “Semi-synthetic gFP (EDTA-containing buffer) Fluorescence intensity (rlu)” value (“Semi-synthetic gFP … (rlu)” below) is listed as 3.6 rlu and the “Semi-synthetic gFP (EDTA-containing buffer) Maximum fluorescence wavelength λmax (nm)” value (from here on “Semi-synthetic gFP … (nm)”) is 491.0 nm.

Consider `CC(C(=O)Nc1ncc(-c2ccc(O)cc2)nc1Cc1ccccc1)c1ccc(O)cc1` (stereo not shown) [Compound 4w, N-[3-Benzyl-5-(4-hydroxyphenyl)pyrazin-2-yl]-2-(4-hydroxyphenyl)propanamide], for which, in series [5], the “Coelenteramide (Buffer containing CaCl2) Fluorescence intensity (rlu)” value is on record as 1.4 rlu, the “Coelenteramide (Buffer containing CaCl2) Maximum fluorescence wavelength λmax (nm)” value was 450.5 nm, the “Coelenteramide (EDTA-containing buffer) Fluorescence intensity (rlu)” value stood at 1.3 rlu and the “Coelenteramide (EDTA-containing buffer) Maximum fluorescence wavelength λmax (nm)” value was 451.0 nm. Also, on apoaequorin [6], the Fluorescence intensity was determined as 181.4 rlu and the “Semi-synthetic BFP” value was determined as 466.0 nm. Also, at apoaequorin [7], the “Semi-synthetic gFP … (rlu)” value is given as 54.6 rlu and the “Semi-synthetic gFP … (nm)” value came to 487.0 nm.

For the compound `O=C(Nc1ncc(-c2ccc(O)cc2)nc1Cc1ccccc1)c1cccc2cc(O)ccc12` [Compound 4z, N-[3-Benzyl-5-(4-hydroxyphenyl)pyrazin-2-yl]-6-hydroxy-1-naphthamide], in series [5], the “Coelenteramide (Buffer containing CaCl2) Fluorescence intensity (rlu)” value was 13.2 rlu, the “Coelenteramide (Buffer containing CaCl2) Maximum fluorescence wavelength λmax (nm)” value turned out to be 410.5 nm, the “Coelenteramide (EDTA-containing buffer) Fluorescence intensity (rlu)” value worked out at 20.2 rlu and the “Coelenteramide (EDTA-containing buffer) Maximum fluorescence wavelength λmax (nm)” value worked out at 409.5 nm. Moreover, at apoaequorin [6], the Fluorescence intensity is recorded as 24.6 rlu and the “Semi-synthetic BFP” value amounted to 487.0 nm. Besides, on apoaequorin [7], the “Semi-synthetic gFP … (rlu)” value was found to be 246.3 rlu and the “Semi-synthetic gFP … (nm)” value was 492.5 nm.

The values are drawn from patent US9056840B2, “Coelenterazine analogues and coelenteramide analogues” (JNC Corporation, priority 2010, dated 2015).
